Measurements as given in DBAASP.
In brackets after ≈: the same amount, converted by molar mass.

Legend:
Test in all cases: ≥ marks a high value that may be exact or a test limit, other limits are often not marked, values filed in µg/mL are converted to µM
[1] = system: Fusarium graminearum PH-1
[2] = system: Pseudomonas aeruginosa ATCC 10145
[3] = system: Staphylococcus aureus Newman
[4] = system: Cronobacter muytjensii ATCC 51329
[5] = system: Klebsiella pneumoniae NCIMB 13218
[6] = system: Cronobacter sakazakii DPC 6440
[7] = system: Escherichia coli NCIMB 11843
[8] = system: Pseudomonas fluorescens NCIMB 9046
[9] = system: Salmonella enterica subsp. enterica serovar Typhimurium LT2
[10] = system: Staphylococcus aureus RF122
[11] = system: Staphylococcus aureus NCTC 8325-4
[12] = system: Cronobacter sakazakii DSM 4485
[13] = system: Staphylococcus aureus SA113
[14] = system: Cronobacter sakazakii ATCC BAA-894
[15] = system: Staphylococcus aureus RN4220
[16] = system: Micrococcus luteus ATCC 10240
[17] = system: Escherichia coli BL21AI
[18] = system: Staphylococcus aureus ATCC 43300
[19] = system: Staphylococcus aureus 1
[20] = system: Micrococcus luteus CCM 144
[21] = system: Staphylococcus epidermidis
[22] = system: Pseudomonas aeruginosa ATCC 27853
[23] = system: Pseudomonas aeruginosa
[24] = system: Staphylococcus aureus
[25] = system: Candida albicans F7-39/IDE99
[26] = system: Bacillus subtilis 168
[27] = system: Escherichia coli B
[28] = system: Escherichia coli MG1655
[29] = system: Klebsiella pneumoniae ATCC 700603
[30] = system: Staphylococcus aureus ATCC 25923

SMILES: C[C@H](NC(=O)CNC(=O)[C@@H](N)CCCN=C(N)N)C(=O)N[C@@H](CCCN=C(N)N)C(=O)N[C@@H](CCCN=C(N)N)C(=O)N[C@@H](CCCN=C(N)N)C(=O)O [RGARRR]
- MIC [1]: ≥ 96 µM

SMILES: C[C@H](NC(=O)[C@H](C)NC(=O)[C@H](CCCCN)NC(=O)[C@H](CCCCN)NC(=O)[C@H](C)NC(=O)[C@H](Cc1ccccc1)NC(=O)[C@H](CCCCN)NC(=O)[C@H](CCCCN)NC(=O)[C@H](C)NC(=O)[C@H](Cc1ccccc1)NC(=O)[C@H](CCCCN)NC(=O)[C@H](CCCCN)NC(=O)[C@H](C)NC(=O)[C@H](Cc1ccccc1)NC(=O)[C@@H](N)CCCCN)C(=O)N[C@@H](CCCCN)C(=O)O [KFAKKFAKKFAKKAAK]
- MIC [2]: ≥ 136 µM

SMILES: CC[C@H](C)[C@H](N)C(=O)N[C@@H](Cc1cnc[nH]1)C(=O)N[C@@H](CCC(N)=O)C(=O)NCC(=O)N[C@@H](CC(C)C)C(=O)N1CCC[C@H]1C(=O)N[C@@H](CCC(N)=O)C(=O)N[C@@H](CCC(=O)O)C(=O)O [IHQGLPQE]
- MIC [3]: ≥ 2500 µM
- MIC [4]: ≥ 2500 µM
- MIC [5]: ≥ 2500 µM
- MIC [6]: ≥ 2500 µM
- MIC [7]: ≥ 2500 µM
- MIC [8]: ≥ 2500 µM
- MIC [9]: ≥ 2500 µM
- MIC [10]: ≥ 1250 µM
- MIC [11]: ≥ 2500 µM
- MIC [12]: ≥ 2500 µM
- MIC [13]: ≥ 2500 µM
- MIC [14]: ≥ 2500 µM
- MIC [15]: ≥ 1250 µM

SMILES: NCC(=O)N[C@@H](CCCN=C(N)N)C(=O)N[C@H]1CSSC[C@@H](C(=O)O)NC(=O)[C@H](CCCN=C(N)N)NC(=O)[C@H](Cc2ccccc2)NC(=O)[C@H](CC(=O)O)NC(=O)[C@H](CC(=O)O)NC(=O)[C@H](CCCN=C(N)N)NC1=O [GRCRDDFRC]
- MIC [1]: ≥ 192 µM

SMILES: CC[C@H](C)[C@H](NC(=O)[C@H](CCCN=C(N)N)NC(=O)[C@H](CCCN=C(N)N)NC(=O)[C@@H]1CCCN1C(=O)[C@@H]1CCCN1C(=O)[C@H](CCCN=C(N)N)NC(=O)[C@@H]1CCCN1C(=O)[C@H](CCCN=C(N)N)NC(=O)[C@@H]1CCCN1C(=O)[C@H](CC(C)C)NC(=O)[C@H](Cc1ccc(O)cc1)NC(=O)[C@@H]1CCCN1C(=O)[C@@H]1CCCN1C(=O)[C@H](CCCCN)NC(=O)[C@H](CC(=O)O)NC(=O)[C@@H](N)C(C)C)C(=O)N[C@@H](Cc1ccc(O)cc1)C(=O)N[C@@H](CC(N)=O)C(=O)N[C@@H](C)C(N)=O [VDKPPYLPRPRPPRRIYNA]
- MIC [16]: 6.94 µM (≈ 16 µg/mL)
- MIC [17]: 13.9 µM (≈ 32 µg/mL)

SMILES: CC[C@H](C)[C@H](NC(=O)CN)C(=O)N[C@@H](CC(C)C)C(=O)N[C@@H](CO)C(=O)N[C@@H](CCCCN)C(=O)N[C@@H](CC(C)C)C(=O)N[C@@H](CC(C)C)C(=O)N[C@@H](CCCCN)C(=O)N[C@@H](CCCCN)C(=O)N[C@@H](CC(C)C)C(=O)N[C@@H](CCCCN)C(=O)N[C@@H](CCCCN)C(=O)N[C@H](C(=O)N[C@H](C(=O)N[C@@H](C)C(=O)N[C@@H](CCCCN)C(N)=O)[C@@H](C)CC)[C@@H](C)CC [GILSKLLKKLKKIIAK]
- MIC [18]: 23 µM (≈ 41.2 µg/mL)
- MIC [19]: 5.9 µM (≈ 10.6 µg/mL)
- MIC [20]: 3 µM (≈ 5.38 µg/mL)
- MIC [21]: 1.8 µM (≈ 3.23 µg/mL)
- MIC [22]: 4.5 µM (≈ 8.07 µg/mL)
- MIC [23]: 8.5 µM (≈ 15.2 µg/mL)
- MIC [24]: 10 µM (≈ 17.9 µg/mL)
- MIC [25]: ≥ 45 µM
- MIC [26]: 7 µM (≈ 12.6 µg/mL)
- MIC [27]: 18 µM (≈ 32.3 µg/mL)

SMILES: CC(C)C[C@H](NC(=O)[C@H](Cc1c[nH]c2ccccc12)NC(=O)[C@H](Cc1cnc[nH]1)NC(=O)[C@H](CCCCN)NC(=O)[C@H](CC(C)C)NC(=O)[C@H](C)NC(=O)[C@H](CC(C)C)NC(=O)[C@H](CCCCN)NC(=O)CNC(=O)[C@@H](NC(=O)[C@@H](NC(=O)[C@H](CCCCN)NC(=O)[C@@H](NC(=O)[C@H](CCC(=O)O)NC(=O)[C@H](C)NC(=O)[C@H](CCCCN)NC(=O)[C@H](CCCCN)NC(=O)[C@H](CC(C)C)NC(=O)[C@H](CC(C)C)NC(=O)[C@@H](NC(=O)[C@H](CCCN=C(N)N)NC(=O)[C@H](Cc1ccc(O)cc1)NC(=O)CN)[C@@H](C)O)C(C)C)[C@@H](C)O)C(C)C)C(=O)O [GYRTLLKKAEVKTVGKLALKHWL]
- MIC [28]: 15 µM (≈ 39.8 µg/mL)
- MIC [29]: > 15 µM
- MIC [2]: 15 µM (≈ 39.8 µg/mL)
- MIC [30]: 15 µM (≈ 39.8 µg/mL)

SMILES: NCC(=O)N[C@@H](CCCN=C(N)N)C(=O)N[C@H]1CSSC[C@@H](C(=O)O)NC(=O)[C@H](CCCN=C(N)N)NC(=O)[C@H](CCCN=C(N)N)NC(=O)[C@H](CCCN=C(N)N)NC(=O)[C@H](Cc2ccccc2)NC(=O)CNC(=O)[C@H](CCCN=C(N)N)NC1=O [GRCRGFRRRC]
- MIC [1]: 6 µM (≈ 7.59 µg/mL)

SMILES: CC(C)C[C@H](NC(=O)[C@H](CC(C)C)NC(=O)[C@H](CC(N)=O)NC(=O)[C@H](CC(=O)O)NC(=O)[C@H](CC(N)=O)NC(=O)[C@H](CC(C)C)NC(=O)[C@@H](N)C(C)C)C(=O)N[C@@H](CCCN=C(N)N)C(=O)O [VLNDNLLR]
- MIC [3]: ≥ 2500 µM
- MIC [4]: ≥ 2500 µM
- MIC [5]: ≥ 2500 µM
- MIC [6]: ≥ 2500 µM
- MIC [7]: ≥ 2500 µM
- MIC [8]: ≥ 2500 µM
- MIC [9]: ≥ 2500 µM
- MIC [10]: ≥ 2500 µM
- MIC [11]: ≥ 2500 µM
- MIC [12]: ≥ 2500 µM
- MIC [13]: ≥ 2500 µM
- MIC [14]: ≥ 2500 µM
- MIC [15]: ≥ 2500 µM

SMILES: CC[C@H](C)[C@H](N)C(=O)N[C@@H](C)C(=O)N[C@@H](C)C(=O)N[C@@H](C)C(=O)NCC(=O)N[C@@H](CC(C)C)C(=O)N1CCC[C@H]1C(=O)N[C@@H](CCC(N)=O)C(=O)N[C@@H](CCC(=O)O)C(=O)O [IAAAGLPQE]
- MIC [3]: ≥ 1250 µM
- MIC [4]: ≥ 1250 µM
- MIC [5]: ≥ 1250 µM
- MIC [6]: ≥ 625 µM
- MIC [7]: ≥ 2500 µM
- MIC [8]: ≥ 2500 µM
- MIC [9]: ≥ 2500 µM
- MIC [10]: ≥ 312 µM
- MIC [11]: ≥ 1250 µM
- MIC [12]: ≥ 1250 µM
- MIC [13]: ≥ 1250 µM
- MIC [14]: ≥ 1250 µM
- MIC [15]: ≥ 312 µM

SMILES: CC[C@H](C)[C@H](NC(=O)CN)C(=O)N[C@@H](CC(C)C)C(=O)N[C@@H](CO)C(=O)N[C@@H](CO)C(=O)N[C@@H](CC(C)C)C(=O)N[C@@H](CC(C)C)C(=O)N[C@@H](CCCCN)C(=O)N[C@@H](CCCCN)C(=O)N[C@@H](CC(C)C)C(=O)N[C@@H](CCCCN)C(=O)N[C@@H](CCCCN)C(=O)N[C@@H](Cc1c[nH]c2ccccc12)C(=O)N[C@H](C(=O)N[C@@H](C)C(=O)N[C@@H](CCCCN)C(N)=O)[C@@H](C)CC [GILSSLLKKLKKWIAK]
- MIC [18]: 8 µM (≈ 14.6 µg/mL)
- MIC [19]: 2.6 µM (≈ 4.75 µg/mL)
- MIC [20]: 3 µM (≈ 5.48 µg/mL)
- MIC [21]: 1.6 µM (≈ 2.92 µg/mL)
- MIC [22]: 8 µM (≈ 14.6 µg/mL)
- MIC [23]: 21 µM (≈ 38.3 µg/mL)
- MIC [24]: 4 µM (≈ 7.3 µg/mL)
- MIC [25]: 16 µM (≈ 29.2 µg/mL)
- MIC [26]: 7 µM (≈ 12.8 µg/mL)
- MIC [27]: 4 µM (≈ 7.3 µg/mL)

SMILES: CC[C@H](C)[C@H](NC(=O)CN)C(=O)N[C@@H](CCSC)C(=O)N[C@@H](CO)C(=O)N[C@@H](CO)C(=O)N[C@@H](CC(C)C)C(=O)N[C@@H](CCSC)C(=O)N[C@@H](CCCCN)C(=O)N[C@@H](CCCCN)C(=O)N[C@@H](CC(C)C)C(=O)N[C@@H](CCCCN)C(=O)N[C@@H](CCCCN)C(=O)N[C@H](C(=O)N[C@H](C(=O)N[C@@H](C)C(=O)N[C@@H](CCCCN)C(N)=O)[C@@H](C)CC)[C@@H](C)CC [GIMSSLMKKLKKIIAK]
- MIC [18]: 32 µM (≈ 57.2 µg/mL)
- MIC [19]: 7.6 µM (≈ 13.6 µg/mL)
- MIC [20]: 3 µM (≈ 5.37 µg/mL)
- MIC [21]: 1.9 µM (≈ 3.4 µg/mL)
- MIC [22]: 5 µM (≈ 8.94 µg/mL)
- MIC [23]: 7.4 µM (≈ 13.2 µg/mL)
- MIC [24]: 23 µM (≈ 41.1 µg/mL)
- MIC [25]: 5.2 µM (≈ 9.3 µg/mL)
- MIC [26]: 7 µM (≈ 12.5 µg/mL)
- MIC [27]: 9 µM (≈ 16.1 µg/mL)
